Laboratory results published in US10456379B2, “Imidazole-based antimicrobial agents” (priority 2014, dated 2019).
≈ marks a conversion by molar mass, not a printed value.

System: Streptococcus pneumoniae (Chester, ATCC49619)
Test: Broth microdilution MIC assay, Streptococcus pneumoniae
Format: cell-based
Settings: MIC class score, MIC100, broth microdilution

Row | SMILES | Antibacterial activity Streptococcus pneumoniae
1 | Cc1nc(-c2ccc(-c3cc(F)ccc3C(F)(F)F)o2)[nH]c1-c1ccccc1 [31a] | 3 (MIC100 of 2-5 μg/ml)
2 | Cc1[nH]c(-c2cc(C)n(-c3ccc(Cl)cc3)c2C)nc1-c1ccccc1 [compound 8] | 3 (MIC100 of 2-5 μg/ml)
3 | Cc1[nH]c(-c2ccc(-c3ccccc3C(F)(F)F)o2)nc1-c1ccc(Br)cc1 [compound 25] | 3 (MIC100 of 2-5 μg/ml)
4 | Cc1nc(-c2ccc(-c3cc(C(F)(F)F)cc(C(F)(F)F)c3)o2)[nH]c1-c1ccccc1 [compound 35] | 2 (MIC100 of 6-10 μg/ml)
5 | Cc1nc(-c2ccc(-c3cc(C(F)(F)F)ccc3Cl)o2)[nH]c1-c1ccccc1 [compound 40] | 2 (MIC100 of 6-10 μg/ml)
6 | CCc1ccc(-c2ccc(-c3nc(-c4ccccc4)c(C)[nH]3)o2)cc1 [compound 53] | 3 (MIC100 of 2-5 μg/ml)
7 | Cc1ccc(-c2ccc(-c3nc(-c4ccccc4)c(C)[nH]3)s2)cc1 [compound 54] | 2 (MIC100 of 6-10 μg/ml)
8 | Cc1ccc(-c2nc(-c3nc(-c4ccccc4)c(C)[nH]3)co2)cc1 [compound 57] | 3 (MIC100 of 2-5 μg/ml)
9 | Cc1ccccc1-c1ccc(-c2nc(C)c(-c3ccccc3)[nH]2)o1 [compound 61] | 3 (MIC100 of 2-5 μg/ml)
10 | Cc1cccc(C)c1-c1ccc(-c2nc(C)c(-c3ccccc3)[nH]2)o1 [compound 62] | 3 (MIC100 of 2-5 μg/ml)
11 | FC(F)(F)Oc1ccccc1-c1ccc(-c2ncc(-c3ccccc3)[nH]2)o1 [compound 63] | 3 (MIC100 of 2-5 μg/ml)
12 | Cc1nc(-c2ccc(-c3ccccc3N(C)C)o2)[nH]c1-c1ccccc1 [compound 71] | 3 (MIC100 of 2-5 μg/ml)
13 | Cc1[nH]c(-c2cnn(-c3ccccc3)n2)nc1-c1ccccc1 [compound 73] | 2 (MIC100 of 6-10 μg/ml)
14 | Cc1nc(-c2ccc(-c3ccccc3Br)o2)[nH]c1C [compound 84] | 2 (MIC100 of 6-10 μg/ml)
15 | Cc1nc(-c2ccc(-c3ccccc3Cl)o2)[nH]c1C [compound 86] | 3 (MIC100 of 2-5 μg/ml)
16 | Cc1nc(-c2ccc(-c3cccc4[nH]ccc34)o2)[nH]c1-c1ccccc1 [compound 138] | 2 (MIC100 of 6-10 μg/ml)
17 | Cc1nc(-c2ccc(-c3ccc(O)cc3C(F)(F)F)o2)[nH]c1-c1ccccc1 [compound 139] | 3 (MIC100 of 2-5 μg/ml)

Row | SMILES | Antibacterial activity Streptococcus pneumoniae
18 | Cc1nc(-c2ccc(/C=C/c3ccccc3)o2)[nH]c1-c1ccccc1 [compound 143] | 3 (MIC100 of 2-5 μg/ml)
19 | Cc1nc(-c2ccc(-c3ccc4[nH]ccc4c3)o2)[nH]c1-c1ccccc1 [compound 144] | 3 (MIC100 of 2-5 μg/ml)
20 | Cc1nc(-c2ccc(-c3cccc(F)c3)o2)[nH]c1-c1ccccc1 [compound 146] | 3 (MIC100 of 2-5 μg/ml)
21 | Cc1nc(-c2ccc(-c3ccc(F)cc3)o2)[nH]c1-c1ccccc1 [compound 148] | 3 (MIC100 of 2-5 μg/ml)
22 | Cc1nc(-c2ccc(-c3ccc4cc[nH]c4c3)o2)[nH]c1-c1ccccc1 [compound 152] | 3 (MIC100 of 2-5 μg/ml)
23 | Cc1nc(-c2ccc(-c3ccc(F)c(F)c3)o2)[nH]c1-c1ccccc1 [compound 153] | 3 (MIC100 of 2-5 μg/ml)
24 | Cc1nc(-c2ccc(-c3ccc(O)c(C(F)(F)F)c3)o2)[nH]c1-c1ccccc1 [compound 155] | 3 (MIC100 of 2-5 μg/ml)
25 | Cc1nc(-c2ccc(-c3ccc(O)c(Cl)c3)o2)[nH]c1-c1ccccc1 [compound 157] | 3 (MIC100 of 2-5 μg/ml)
26 | Cc1nc(-c2ccc(-c3ccc(O)cc3Cl)o2)[nH]c1-c1ccccc1 [compound 158] | 3 (MIC100 of 2-5 μg/ml)
27 | Cc1nc(-c2ccc(-c3ccc4occc4c3)o2)[nH]c1-c1ccccc1 [compound 159] | 3 (MIC100 of 2-5 μg/ml)
28 | Cc1nc(-c2ccc(-c3cccc4cc[nH]c34)o2)[nH]c1-c1ccccc1 [compound 161] | 3 (MIC100 of 2-5 μg/ml)
29 | Cc1[nH]c(-c2ccc(-c3ccccc3F)o2)nc1-c1ccccc1 [compound 162] | 3 (MIC100 of 2-5 μg/ml)
30 | Cc1[nH]c(-c2ccc(-c3c(F)cccc3F)o2)nc1-c1ccccc1 [compound 163] | 3 (MIC100 of 2-5 μg/ml)
31 | Cc1cc(F)ccc1-c1ccc(-c2nc(-c3ccccc3)c(C)[nH]2)o1 [compound 164] | 3 (MIC100 of 2-5 μg/ml)
32 | Cc1[nH]c(-c2ccc(-c3ccc(C(C)(C)C)cc3)o2)nc1-c1ccccc1 [compound 165] | 2 (MIC100 of 6-10 μg/ml)
33 | Cc1nc(-c2ccc(-c3ccc(O)cc3F)o2)[nH]c1-c1ccccc1 [compound 168] | 3 (MIC100 of 2-5 μg/ml)

Same assay, conditions: Streptococcus pneumoniae, ATCC49619; read-out: Antibacterial activity, SP (Streptococcus pneumoniae), MIC class

Row | SMILES | MIC [µg/mL]
34 | Cc1nc(-c2ccc(-c3cccc(Cl)c3)o2)[nH]c1-c1ccccc1 [compound 4] | < 1
35 | Cc1nc(-c2ccc(-c3ccc(Cl)cc3)o2)[nH]c1-c1ccccc1 [compound 5] | < 1
36 | Cc1[nH]c(-c2ccc(-c3ccc(F)cc3)s2)nc1-c1ccccc1 [compound 7] | 2 to 5 (≈ 5.98 to 15 µM)
37 | Cc1[nH]c(-c2cc(C)n(-c3ccc(Cl)cc3)c2C)nc1-c1ccccc1 [compound 8] | 2 to 5 (≈ 5.53 to 13.8 µM)
38 | Cc1[nH]c(-c2cc(C)n(-c3ccc(F)cc3F)c2C)nc1-c1ccccc1 [compound 9] | 2 to 5 (≈ 5.5 to 13.8 µM)
39 | Cc1[nH]c(-c2cc(C)n(-c3ccc(F)c(F)c3F)c2C)nc1-c1ccccc1 [compound 10] | 2 to 5 (≈ 5.24 to 13.1 µM)
40 | Cc1[nH]c(-c2csc(-c3ccc(F)cc3)n2)nc1-c1ccccc1 [compound 11] | 2 to 5 (≈ 5.96 to 14.9 µM)
41 | Cc1[nH]c(-c2ccc(-c3cccc(Cl)c3)s2)nc1-c1ccccc1 [compound 12] | 2 to 5 (≈ 5.7 to 14.3 µM)
42 | Cc1[nH]c(-c2ccc(-c3cccc(Br)c3)s2)nc1-c1ccccc1 [compound 13] | 2 to 5 (≈ 5.06 to 12.6 µM)
43 | Cc1[nH]c(-c2csc(-c3cccc(Br)c3)n2)nc1-c1ccccc1 [compound 14] | 2 to 5 (≈ 5.05 to 12.6 µM)
44 | Cc1nc(-c2ccc(-c3ccccc3C(F)(F)F)o2)[nH]c1-c1ccccc1Cl [compound 20] | < 1
45 | Cc1[nH]c(-c2ccc(-c3ccccc3C(F)(F)F)o2)nc1-c1ccc(Br)cc1 [compound 25] | 2 to 5 (≈ 4.47 to 11.2 µM)
46 | Cc1[nH]c(-c2ccc(-c3ccccc3OC(F)(F)F)o2)nc1-c1ccc(C(F)(F)F)cc1 [compound 26] | 2 to 5 (≈ 4.42 to 11.1 µM)
47 | C#Cc1ccc(-c2[nH]c(-c3ccc(-c4ccccc4C(F)(F)F)o3)nc2C)cc1 [compound 27] | < 1
48 | CCc1ccc(-c2[nH]c(-c3ccc(-c4ccccc4C(F)(F)F)o3)nc2C)cc1 [compound 28] | 2 to 5 (≈ 5.05 to 12.6 µM)
49 | COc1ccc(-c2ccc(-c3nc(C)c(-c4ccccc4)[nH]3)o2)c(C(F)(F)F)c1 [compound 31] | < 1

Row | SMILES | MIC [µg/mL]
50 | Cc1nc(-c2ccc(-c3cc(C(F)(F)F)ccc3Cl)o2)[nH]c1-c1ccccc1 [compound 40] | 6 to 10 (≈ 14.9 to 24.8 µM)
51 | Cc1ccc(-c2ccc(-c3nc(-c4ccccc4)c(C)[nH]3)o2)cc1 [compound 52] | 6 to 10 (≈ 19.1 to 31.8 µM)
52 | CCc1ccc(-c2ccc(-c3nc(-c4ccccc4)c(C)[nH]3)o2)cc1 [compound 53] | 2 to 5 (≈ 6.09 to 15.2 µM)
53 | Cc1ccc(-c2ccc(-c3nc(-c4ccccc4)c(C)[nH]3)s2)cc1 [compound 54] | 6 to 10 (≈ 18.2 to 30.3 µM)
54 | Cc1ccc(-c2ncc(-c3nc(-c4ccccc4)c(C)[nH]3)s2)cc1 [compound 55] | 2 to 5 (≈ 6.03 to 15.1 µM)
55 | Cc1ccc(-c2nc(-c3nc(-c4ccccc4)c(C)[nH]3)cs2)cc1 [compound 56] | 2 to 5 (≈ 6.03 to 15.1 µM)
56 | Cc1ccc(-c2nc(-c3nc(-c4ccccc4)c(C)[nH]3)co2)cc1 [compound 57] | 2 to 5 (≈ 6.34 to 15.9 µM)
57 | Cc1[nH]c(-c2cc(C)n(-c3ccc(C(C)C)cc3)c2C)nc1-c1ccccc1 [compound 58] | < 1
58 | Cc1[nH]c(-c2cc(C)n(-c3ccc4c(c3)CCC4)c2C)nc1-c1ccccc1 [compound 59] | 2 to 5 (≈ 5.44 to 13.6 µM)
59 | Cc1ccccc1-c1ccc(-c2nc(C)c(-c3ccccc3)[nH]2)o1 [compound 61] | 2 to 5 (≈ 6.36 to 15.9 µM)
60 | Cc1cccc(C)c1-c1ccc(-c2nc(C)c(-c3ccccc3)[nH]2)o1 [compound 62] | 2 to 5 (≈ 6.09 to 15.2 µM)
61 | FC(F)(F)Oc1ccccc1-c1ccc(-c2ncc(-c3ccccc3)[nH]2)o1 [compound 63] | 2 to 5 (≈ 5.4 to 13.5 µM)
62 | Cc1nc(-c2ccc(-c3ccccc3N(C)C)o2)[nH]c1-c1ccccc1 [compound 71] | 2 to 5 (≈ 5.82 to 14.6 µM)
63 | Cc1[nH]c(-c2coc(-c3ccccc3C(F)(F)F)c2)nc1-c1ccccc1 [compound 72] | 6 to 10 (≈ 16.3 to 27.1 µM)
64 | Cc1[nH]c(-c2cnn(-c3ccccc3)n2)nc1-c1ccccc1 [compound 73] | 6 to 10 (≈ 19.9 to 33.2 µM)
65 | Cc1[nH]c(-c2ccc(-c3ccccc3)s2)nc1-c1ccccc1 [compound 74] | 2 to 5 (≈ 6.32 to 15.8 µM)

System: Staphylococcus aureus MRSA (COL)
Test: Broth microdilution MIC assay, Staphylococcus aureus MRSA (COL)
Format: cell-based
Settings: MIC class score, MIC100, broth microdilution, COL strain

Row | SMILES | Antibacterial activity Staphylococcus aureus (MRSA)
66 | CCCc1nc(-c2coc(-c3ccccc3C(F)(F)F)c2)[nH]c1C [Compound 112] | 3 (MIC100 of 3-10 μg/ml)
67 | CCCc1nc(-c2csc(-c3ccccc3C(F)(F)F)c2)[nH]c1C [Compound 113] | 3 (MIC100 of 3-10 μg/ml)
68 | CCCc1nc(-c2sc(-c3ccccc3C(F)(F)F)c3c2OCCO3)[nH]c1C [Compound 114] | 3 (MIC100 of 3-10 μg/ml)
69 | Cc1nc(-c2ccc(-c3ccc(F)cc3F)o2)[nH]c1-c1ccc(O)cc1 [compound 80] | 2 (MIC100 of 11-20 μg/ml)
70 | CCCc1[nH]c(-c2ccc(-c3ccccc3Cl)s2)nc1C [compound 82] | 3 (MIC100 of 3-10 μg/ml)
71 | CCCc1[nH]c(-c2ccc(-c3ccccc3)o2)nc1C [compound 94] | 3 (MIC100 of 3-10 μg/ml)
72 | CCCc1nc(-c2ccc(-c3ccccc3N(C)C)o2)[nH]c1C [compound 98] | 3 (MIC100 of 3-10 μg/ml)
73 | CCCc1nc(-c2ccc(-c3ccccc3C)o2)[nH]c1C [compound 100] | 2 (MIC100 of 11-20 μg/ml)
74 | CCCc1nc(-c2ccc(-c3c(C)cccc3C)o2)[nH]c1C [compound 103] | 3 (MIC100 of 3-10 μg/ml)
75 | CCCc1nc(-c2ccc(-c3ccc(C(F)(F)F)cc3)o2)[nH]c1C [compound 104] | 3 (MIC100 of 3-10 μg/ml)
76 | CCCc1[nH]c(-c2ccc(-c3cccc4[nH]ccc34)o2)nc1C [compound 108] | 2 (MIC100 of 11-20 μg/ml)
77 | CCCc1[nH]c(-c2ccc(-c3ccc(Cl)cc3Cl)o2)nc1C [compound 109] | 2 (MIC100 of 11-20 μg/ml)
78 | CCCc1[nH]c(-c2ccc(-c3ccc(O)cc3C(F)(F)F)o2)nc1C [compound 110] | 3 (MIC100 of 3-10 μg/ml)

Same assay, conditions: Staphylococcus aureus, MRSA, read-out: Antibacterial activity, MRSA (Staphylococcus aureus MRSA), MIC class

Row | SMILES | MIC [µg/mL]
79 | Cc1nc(-c2ccc(-c3cccc(Cl)c3)o2)[nH]c1-c1ccccc1 [compound 4] | 11 to 20 (≈ 32.9 to 59.7 µM)
